Paper PMC4213943 (ChemMedChem, 2014)

Target: G-actin (Prodan-G-actin; actin) (Oryctolagus cuniculus, UniProt P68135)
Assay: X-ray crystal structure
Format: binding
Settings: nucleotide site

SMILES	X-ray crystal structure (actin co-crystallised with SF-01 or GC-04, Ca2+)	X-ray crystal structure (actin co-crystallised with kabiramide C, Ca2+)
Nc1ncnc2c1ncn2[C@@H]1O[C@H](COP(=O)(O)OP(=O)(O)O)[C@@H](O)[C@H]1O [ADP]	complexes with GC-04 and SF-01 is occupied by ADP	
Nc1ncnc2c1ncn2[C@@H]1O[C@H](COP(=O)(O)OP(=O)(O)OP(=O)(O)O)[C@@H](O)[C@H]1O [ATP]		ATP is bound to the actin in the KabC complex
